Key:
Assay in all cases: Test C greenhouse herbicide test, pre- and postemergence
Format in all cases: in vivo
[1] = system: waterhemp (common waterhemp, Amaranthus rudis)
Excerpt: (§1) Seeds of plant species selected from blackgrass (Alopecurus myosuroides), ryegrass, Italian (Italian ryegrass, Lolium multiflorum), wheat (winter wheat, Triticum aestivum), galium (catchweed bedstraw, Galium aparine), corn (Zea mays), large crabgrass, large (large crabgrass, Digitaria sanguinalis), foxtail, giant (giant foxtail, Setaria faberii), johnsongrass (Sorghum halepense), lambsquarters (Chenopodium album), morningglory (Ipomoea coccinea), nutsedge, yellow (yellow nutsedge, Cyperus esculentus), pigweed (Amaranthus retroflexus), ragweed (common ragweed, Ambrosia elatior), soybean (Glycine max), barnyardgrass (Echinochloa crus-galli), oilseed rape (Brassica napus), waterhemp (common waterhemp, Amaranthus rudis), and velvetleaf (Abutilon theophrasti) were planted into a blend of loam soil and sand and treated preemergence with test chemicals formulated in a non-phytotoxic solvent mixture which included a surfactant.
(§2) At the same time, plants selected from these crop and weed species and also chickweed (common chickweed, Stellaria media), kochia (Kochia scoparia), and oat, wild (wild oat, Avena fatua), were planted in pots containing Redi-Earth® planting medium (Scotts Company, 14111 Scottslawn Road, Marysville, Ohio 43041) comprising spaghnum peat moss, vermiculite, wetting agent and starter nutrients and treated with postemergence applications of test chemicals formulated in the same manner. Plants ranged in height from 2 to 18 cm (1- to 4-leaf stage) for postemergence treatments. Treated plants and controls were maintained in a greenhouse for 13 to 15 d, after which time all species were compared to controls and visually evaluated. Plant response ratings, summarized in Table C, are based on a scale of 0 to 100 where 0 is no effect and 100 is complete control. A dash (-) response means no test result.

soybean (Glycine max) = system: soybean (Glycine max)
Excerpt: as §1, §2

[2] = system: velvetleaf (Abutilon theophrasti)
Excerpt: as §1, §2

[3] = system: nutsedge, yellow (yellow nutsedge, Cyperus esculentus)
Excerpt: as §1, §2

[4] = system: oilseed rape (Brassica napus)
Excerpt: as §1, §2

[5] = system: lambsquarters (Chenopodium album)
Excerpt: as §1, §2

corn (Zea mays) = system: corn (Zea mays)
Excerpt: as §1, §2

[6] = system: crabgrass, large (large crabgrass, Digitaria sanguinalis)
Excerpt: as §1, §2

[7] = system: foxtail, giant (giant foxtail, Setaria faberii)
Excerpt: as §1, §2

[8] = system: barnyardgrass (Echinochloa crus-galli)
Excerpt: as §1, §2

[9] = system: blackgrass (Alopecurus myosuroides)
Excerpt: as §1, §2

[10] = system: galium (catchweed bedstraw, Galium aparine)
Excerpt: as §1, §2

[11] = system: ragweed (common ragweed, Ambrosia elatior)
Excerpt: as §1, §2

[12] = system: morningglory (Ipomoea coccinea)
Excerpt: as §1, §2

[13] = system: ryegrass, Italian (Italian ryegrass, Lolium multiflorum)
Excerpt: as §1, §2

[14] = Postemergence, 31 g ai/ha, 0 to 100 scale (0 no effect, 100 complete control)
[15] = Postemergence, 125 g ai/ha, scale 0 to 100, 0 is no effect, 100 is complete control
[16] = Postemergence, 250 g ai/ha, scale 0 to 100, 0 no effect, 100 complete control, 13 to 15 d
[17] = Preemergence, 62 g ai/ha, scale 0 to 100, 0 is no effect, 100 is complete control
[18] = Preemergence, 125 g ai/ha, scale 0 to 100, 0 is no effect, 100 is complete control
[19] = Preemergence, 250 g ai/ha, scale 0 to 100, 0 no effect, 100 complete control
[20] = postemergence, 62 g ai/ha, scale 0 to 100, 0 no effect, 100 complete control
[21] = Preemergence, 31 g ai/ha, scale 0 to 100, 0 is no effect, 100 is complete control

CCc1ccc2ccccc2c1-c1c(O)c(C)nn(C)c1=O [Compound 32]
100: Plant response rating, Waterhemp [1, 17] | Plant response rating, Waterhemp [1, 18] | Waterhemp plant response rating [1, 19] | Oilseed Rape plant response rating [4, 19] | Plant response rating, Lambsquarters [5, 16] | Crabgrass, Large plant response rating [6, 19] | Barnyardgrass plant response rating [8, 19] | Plant response rating, Galium [10, 15] | Plant response rating, Galium [10, 16] | Plant response rating, Galium [10, 18] | Galium plant response rating [10, 20] | Plant response rating, Morningglory [12, 15] | Plant response rating, Morningglory [12, 16] | Morningglory plant response rating [12, 20]
0: Corn plant response rating (corn (Zea mays); [14]) | Plant response rating, Corn (corn (Zea mays); [21]) | Plant response rating, Corn (corn (Zea mays); [17]) | Plant response rating, Corn (corn (Zea mays); [18]) | Plant response rating, Crabgrass, Large [6, 21]
50: Foxtail, Giant plant response rating [7, 20]
40: Plant response rating, Soybean (soybean (Glycine max); [18]) | Plant response rating, Corn (corn (Zea mays); [16])
98: Plant response rating, Waterhemp [1, 16] | Plant response rating, Lambsquarters [5, 15] | Galium plant response rating [10, 19] | Plant response rating, Ragweed [11, 15] | Plant response rating, Ragweed [11, 16] | Ragweed plant response rating [11, 19] | Plant response rating, Morningglory [12, 18] | Morningglory plant response rating [12, 19]
80: Waterhemp plant response rating [1, 20] | Plant response rating, Nutsedge, Yellow [3, 15] | Nutsedge, Yellow plant response rating [3, 20] | Plant response rating, Lambsquarters [5, 21] | Plant response rating, Foxtail, Giant [7, 15] | Plant response rating, Foxtail, Giant [7, 17] | Plant response rating, Blackgrass [9, 15] | Plant response rating, Blackgrass [9, 16] | Plant response rating, Morningglory [12, 21]
30: Plant response rating, Soybean (soybean (Glycine max); [15]) | Plant response rating, Corn (corn (Zea mays); [15]) | Crabgrass, Large plant response rating [6, 20] | Barnyardgrass plant response rating [8, 20] | Blackgrass plant response rating [9, 14]
85: Plant response rating, Waterhemp [1, 15] | Plant response rating, Velvetleaf [2, 15] | Plant response rating, Velvetleaf [2, 16] | Plant response rating, Velvetleaf [2, 17] | Plant response rating, Velvetleaf [2, 18] | Plant response rating, Nutsedge, Yellow [3, 16] | Lambsquarters plant response rating [5, 14] | Plant response rating, Lambsquarters [5, 18] | Plant response rating, Foxtail, Giant [7, 18] | Foxtail, Giant plant response rating [7, 19] | Plant response rating, Barnyardgrass [8, 18] | Ragweed plant response rating [11, 14] | Plant response rating, Ragweed [11, 21] | Ryegrass, Italian plant response rating [13, 14] | Plant response rating, Ryegrass, Italian [13, 21]
35: Plant response rating, Soybean (soybean (Glycine max); [16]) | Corn plant response rating (corn (Zea mays); [19]) | Plant response rating, Crabgrass, Large [6, 17]
25: Soybean plant response rating (soybean (Glycine max); [20]) | Plant response rating, Nutsedge, Yellow [3, 21] | Plant response rating, Oilseed Rape [4, 21]
75: Plant response rating, Crabgrass, Large [6, 15]
55: Soybean plant response rating (soybean (Glycine max); [19]) | Nutsedge, Yellow plant response rating [3, 14] | Plant response rating, Foxtail, Giant [7, 21]
60: Nutsedge, Yellow plant response rating [3, 19] | Plant response rating, Oilseed Rape [4, 15] | Oilseed Rape plant response rating [4, 20] | Blackgrass plant response rating [9, 20]
65: Plant response rating, Barnyardgrass [8, 15] | Plant response rating, Barnyardgrass [8, 17]
15: Soybean plant response rating (soybean (Glycine max); [14]) | Foxtail, Giant plant response rating [7, 14]
10: Plant response rating, Soybean (soybean (Glycine max); [17]) | Velvetleaf plant response rating [2, 14] | Oilseed Rape plant response rating [4, 14] | Crabgrass, Large plant response rating [6, 14] | Barnyardgrass plant response rating [8, 14]
95: Plant response rating, Galium [10, 17] | Plant response rating, Ragweed [11, 18] | Plant response rating, Ryegrass, Italian [13, 16] | Plant response rating, Ryegrass, Italian [13, 18] | Ryegrass, Italian plant response rating [13, 19]
70: Waterhemp plant response rating [1, 14] | Velvetleaf plant response rating [2, 20] | Plant response rating, Lambsquarters [5, 17] | Plant response rating, Crabgrass, Large [6, 16] | Plant response rating, Crabgrass, Large [6, 18] | Plant response rating, Blackgrass [9, 21]
20: Corn plant response rating (corn (Zea mays); [20]) | Plant response rating, Barnyardgrass [8, 21]
90: Velvetleaf plant response rating [2, 19] | Plant response rating, Oilseed Rape [4, 16] | Plant response rating, Oilseed Rape [4, 17] | Plant response rating, Oilseed Rape [4, 18] | Lambsquarters plant response rating [5, 19] | Lambsquarters plant response rating [5, 20] | Plant response rating, Foxtail, Giant [7, 16] | Plant response rating, Barnyardgrass [8, 16] | Plant response rating, Blackgrass [9, 17] | Plant response rating, Blackgrass [9, 18] | Blackgrass plant response rating [9, 19] | Galium plant response rating [10, 14] | Plant response rating, Galium [10, 21] | Plant response rating, Ragweed [11, 17] | Ragweed plant response rating [11, 20] | Morningglory plant response rating [12, 14] | Plant response rating, Morningglory [12, 17] | Plant response rating, Ryegrass, Italian [13, 15] | Plant response rating, Ryegrass, Italian [13, 17] | Ryegrass, Italian plant response rating [13, 20]
45: Plant response rating, Nutsedge, Yellow [3, 17] | Plant response rating, Nutsedge, Yellow [3, 18]

— patent publication US10597388B2, “Pyridazinone herbicides” (FMC CORPORATION, priority 2014, dated 2020)
